According to patent publication US10214546B2, “Btk inhibitors” (MERCK SHARP & DOHME CORP., priority 2014, dated 2019):
Like-named read-outs stand apart in the source and are kept apart here.

How the values were obtained:
[1] = biological target: BTK enzyme (recombinant full-length BTK, hBTK) (Homo sapiens (Human), UniProt Q06187); experiment: BTK enzymatic activity LANCE TR-FRET assay; type: biochemical; conditions: 50 pM hBTK, 25 μM ATP, 2 μM biotin-A5-peptide; compound range 1 μM to 0.017 nM; read-out: BTK binding IC50
Method: Btk Enzyme Activity Assay Methods
BTK enzymatic activity was determined with the LANCE (Lanthanide Chelate Excite) TR-FRET (Time-resolved fluorescence resonance energy transfer) assay. […] Phosphorylation reactions were allowed to proceed for 120 minutes. […] After 60 minutes incubation with detection reagents, reaction plates were read on a PerkinElmer EnVision plate reader using standard TR-FRET protocol. […] IC50 values were determined by 4 parameter robust fit of TR-FRET ratio values vs. (Log10) compound concentrations.

[2] = test system: adenosine uptake into HeLa cells; experiment: [3H]Adenosine uptake assay in HeLa cells; type: cell-based; conditions: [3H]adenosine accumulation in HeLa cells, compound range 10 μM to 0.032 nM, read-out: ADU inhibition IC50
Method: Compounds are also screened in an adenosine uptake functional cellular assay using the protocol described below:
[^3H]Adenosine Uptake Assay Methods
Adenosine uptake activity was determined by monitoring the accumulation of tritiated adenosine into HeLa cells (ATCC catalog # CCL-2) using a PMT-based radiometric detection instrument. In this assay, the potency (IC50) of each compound was determined from a ten point (1:3 serial dilution; final compound concentration range in assay from 10 µM to […]) titration curve using the following outlined procedure. To each well of a 96-well CytoStar-T scintillating microplate (Perkin Elmer Catalog # RPNQ0163), 25 000 HeLa cells in 100 µL of growth medium comprising: Minimum Essential Media (Life Technologies Catalog #11095-080)+10% (v/v) foetal bovine serum (FBS; Sigma Aldrich Catalog # F2442) was added. These cells were incubated overnight at 37° C. in a humidified atmosphere with 5% (v/v) CO2. After this time the growth medium was removed and replaced with 40 μL assay medium comprising: Hanks balanced salts solution (HBSS; Thermo Fisher Catalog # SH30268.01)+5% (v/v) FBS. Compound stock solutions in DMSO were diluted in assay medium to 2.5× final compound concentration maintaining a constant DMSO concentration of 0.25% (v/v). 40 μL of compound in assay medium was dispensed into individual wells of the Cytostar-T plates and the plates were incubated for 30 minutes under ambient laboratory conditions. Following this incubation, 20 μL of 500 nM [^3H] adenosine (American Radiolabeled Chemicals Inc. […] The amount of radiolabel accumulation was then determined using a Perkin Elmer Topcount NXT microplate reader. In brief, HeLa cells adhere to the bottom of the Cytostar-T plate, uptake of [^3H]adenosine into these cells brings the radiolabel into sufficient proximity to excite the scintillant in the base of the plates. These events are captured by single PMT, time-resolved coincidence counting. IC50 values were determined by 4 parameter robust fit of counts per second values vs. (Log10) compound concentrations.

Chain of BTK enzyme (recombinant full-length BTK, hBTK) (Q06187 whole entry): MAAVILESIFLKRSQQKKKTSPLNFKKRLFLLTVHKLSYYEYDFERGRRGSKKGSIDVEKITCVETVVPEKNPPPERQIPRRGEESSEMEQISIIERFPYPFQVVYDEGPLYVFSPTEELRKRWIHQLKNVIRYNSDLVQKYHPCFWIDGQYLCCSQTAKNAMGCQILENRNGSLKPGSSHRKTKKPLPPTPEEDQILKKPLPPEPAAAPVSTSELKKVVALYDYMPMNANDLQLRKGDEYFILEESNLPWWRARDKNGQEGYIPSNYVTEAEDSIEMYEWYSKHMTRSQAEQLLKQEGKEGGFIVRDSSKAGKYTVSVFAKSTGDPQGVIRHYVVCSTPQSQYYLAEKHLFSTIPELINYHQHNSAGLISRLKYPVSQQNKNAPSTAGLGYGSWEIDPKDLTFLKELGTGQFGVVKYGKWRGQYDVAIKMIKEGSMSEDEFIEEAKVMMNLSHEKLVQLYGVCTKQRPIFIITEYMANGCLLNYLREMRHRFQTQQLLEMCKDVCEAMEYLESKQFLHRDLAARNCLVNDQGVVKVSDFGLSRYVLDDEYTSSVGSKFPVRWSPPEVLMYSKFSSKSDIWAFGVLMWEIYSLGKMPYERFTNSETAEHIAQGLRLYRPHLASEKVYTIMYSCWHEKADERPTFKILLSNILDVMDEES

Structure (SMILES)	IC50 [1]	IC50 [2]	IC50 ([2]; Homo sapiens, HeLa)
COc1cc(C(O)(c2cccc(C(F)(F)F)c2)C(F)(F)F)ccc1-c1nc([C@@H]2CC[C@H]3CCC(=O)N3C2)n2ccnc(N)c12 (single isomer, unassigned) [Example 10]	496 nM	2160 nM	
COc1cc(C(O)(c2cccc(C(F)(F)F)c2)C(F)(F)F)ccc1-c1nc([C@@H]2CC[C@H]3CCC(=O)N3C2)n2ccnc(N)c12 (single isomer, unassigned) [Example 11]	1.8 nM	5340 nM	
C[C@](O)(c1ccccc1)c1ccc(-c2nc([C@@H]3CC[C@H]4CCC(=O)N4C3)n3ccnc(N)c23)cc1 [Example 1, (6R,8aS)-6-(8-amino-1-(4-((S)-1-hydroxy-1-phenylethyl)phenyl)imidazo[1,5-a]pyrazin-3-yl)hexahydroindolizin-3(2H)-one]	65.2 nM		3340 nM
C[C@@](O)(c1ccccc1)c1ccc(-c2nc([C@@H]3CC[C@H]4CCC(=O)N4C3)n3ccnc(N)c23)cc1 [Example 2, (6R,8aS)-6-(8-amino-1-(4-((R)-1-hydroxy-1-phenylethyl)phenyl)imidazo[1,5-a]pyrazin-3-yl)hexahydroindolizin-3(2H)-one]	1.6 nM		6350 nM
C[C@@](O)(c1ccc(-c2nc([C@@H]3CC[C@H]4CCC(=O)N4C3)n3ccnc(N)c23)cc1)c1cccc(C(F)(F)F)c1 [Example 3, (6R,8aS)-6-(8-amino-1-(4-((R)-1-hydroxy-1-(3-(trifluoromethyl)phenyl)ethyl)phenyl)imidazo[1,5-a]pyrazin-3-yl)hexahydroindolizin-3(2H)-one]	884 nM		405 nM
C[C@](O)(c1ccc(-c2nc([C@@H]3CC[C@H]4CCC(=O)N4C3)n3ccnc(N)c23)cc1)c1cccc(C(F)(F)F)c1 [Example 4, (6R,8aS)-6-(8-amino-1-(4-((S)-1-hydroxy-1-(3-(trifluoromethyl)phenyl)ethyl)phenyl)imidazo[1,5-a]pyrazin-3-yl)hexahydroindolizin-3(2H)-one]	0.62 nM		3480 nM
C[C@](O)(c1ccc(-c2nc([C@@H]3CC[C@H]4CCC(=O)N4C3)n3c(Cl)cnc(N)c23)cc1)c1cccc(C(F)(F)F)c1 [Example 5, (6R,8aS)-6-(8-amino-5-chloro-1-(4-((S)-1-hydroxy-1-(3-(trifluoromethyl)phenyl)ethyl)phenyl)imidazo[1,5-a]pyrazin-3-yl)hexahydroindolizin-3(2H)-one]	377 nM		553 nM
C[C@@](O)(c1ccc(-c2nc([C@@H]3CC[C@H]4CCC(=O)N4C3)n3c(Cl)cnc(N)c23)cc1)c1cccc(C(F)(F)F)c1 [Example 6, (6R,8aS)-6-(8-amino-5-chloro-1-(4-((R)-1-hydroxy-1-(3-(trifluoromethyl)phenyl)ethyl)phenyl)imidazo[1,5-a]pyrazin-3-yl)hexahydroindolizin-3(2H)-one]	0.76 nM		1730 nM
CC1(C)C[C@@H]2CC[C@@H](c3nc(-c4ccc([C@@](C)(O)c5cccc(C(F)(F)F)c5)cc4)c4c(N)nccn34)CN2C1=O [Example 7, (6R,8aS)-6-(8-amino-1-(4-((R)-1-hydroxy-1-(3-(trifluoromethyl)phenyl)ethyl)phenyl)imidazo[1,5-a]pyrazin-3-yl)-2,2-dimethylhexahydroindolizin-3(2H)-one]	0.82 nM		2790 nM
CC1OC(=O)N2C[C@H](c3nc(-c4ccc([C@@](C)(O)c5cccc(C(F)(F)F)c5)cc4)c4c(N)nccn34)OC[C@@H]12 (stereo partly drawn) [Example 8, (6R,8aS)-6-(8-amino-1-(4-((R)-1-hydroxy-1-(3-(trifluoromethyl)phenyl)ethyl)phenyl)imidazo[1,5-a]pyrazin-3-yl)-1-methyltetrahydrooxazolo[4,3-c][14]oxazin-3(1H)-one]	20.6 nM	5080 nM	
C[C@@H]1OC(=O)N2C[C@H](c3nc(-c4ccc([C@@](C)(O)c5cccc(C(F)(F)F)c5)cc4)c4c(N)nccn34)OC[C@@H]12 [Example 9, (6R,8aS)-6-(8-amino-1-(4-((R)-1-hydroxy-1-(3-(trifluoromethyl)phenyl)ethyl)phenyl)imidazo[1,5-a]pyrazin-3-yl)-1-methyltetrahydrooxazolo[4,3-c][1,4]oxazin-3(1H)-one]	13 nM		5540 nM
Nc1nccn2c([C@@H]3CC[C@H]4CCC(=O)N4C3)nc(-c3ccc(C(O)(c4ccccc4)C(F)(F)F)cc3)c12 (stereo partly drawn) [Example 12, (6R,8aS)-6-(8-amino-1-(4-(2,2,2-trifluoro-1-hydroxy-1-phenethyl)phenyl)imidazo[1,5-a]pyrazin-3-yl)hexahydroindolizin-3(2H)-one]	3.4 nM		1240 nM
CC(O)(c1ccc(-c2nc([C@@H]3CC[C@H]4CCC(=O)N4C3)n3ccnc(N)c23)cc1)c1cccc(C(F)(F)F)c1 (stereo partly drawn) [Example 13, (6R,8aS)-6-(8-amino-1-(4-(1-hydroxy-1-(3-(trifluoromethyl)phenyl)ethyl)phenyl)imidazo[1,5-a]pyrazin-3-yl)hexahydroindolizin-3(2H)-one]	1.7 nM		873 nM
CC(C)C(C)(O)c1ccc(-c2nc([C@@H]3CC[C@H]4CCC(=O)N4C3)n3ccnc(N)c23)cc1 (stereo partly drawn) [Example 14, (6R,8aS)-6-{8-amino-1-[4-(1-hydroxy-1,2-dimethylpropyl)phenyl]imidazo[1,5-a]pyrazin-3-yl}hexahydroindolizin-3(2H)-one]	256 nM		6950 nM
CC(O)(c1ccc(-c2nc([C@@H]3CC[C@H]4CCC(=O)N4C3)n3ccnc(N)c23)cc1)c1ccc(C(F)(F)F)cc1 (stereo partly drawn) [Example 15, (6R,8aS)-6-[8-amino-1-(4-{1-hydroxy-1-[4-(trifluoromethyl)phenyl]ethyl}phenyl)imidazo[1,5-a]pyrazin-3-yl]hexahydroindolizin-3(2H)-one]	388 nM		1780 nM
CC(O)(c1ccc(-c2nc([C@@H]3CC[C@H]4CCC(=O)N4C3)n3ccnc(N)c23)cc1)c1cccc(F)c1 (stereo partly drawn) [Example 16, (6R,8aS)-6-(8-amino-1-{4-[1-(3-fluorophenyl)-1-hydroxyethyl]phenyl}imidazo[1,5-a]pyrazin-3-yl)hexahydroindolizin-3(2H)-one]	7.3 nM		2440 nM
CC(O)(c1ccc(-c2nc([C@@H]3CC[C@H]4CCC(=O)N4C3)n3ccnc(N)c23)cc1)c1ccccn1 (stereo partly drawn) [Example 17, (6R,8aS)-6-{8-amino-1-[4-(1-hydroxy-1-pyridin-2-ylethyl)phenyl]imidazo[1,5-a]pyrazin-3-yl}hexahydroindolizin-3(2H)-one]	324 nM		5720 nM
CC(O)(c1ccc(-c2nc([C@@H]3CC[C@H]4CCC(=O)N4C3)n3ccnc(N)c23)cc1)c1cccnc1 (stereo partly drawn) [Example 18, (6R,8aS)-6-{8-amino-1-[4-(1-hydroxy-1-pyridin-3-ylethyl)phenyl]imidazo[1,5-a]pyrazin-3-yl}hexahydroindolizin-3(2H)-one]	359 nM		10000 nM
CC(O)(c1ccc(F)cc1)c1ccc(-c2nc([C@@H]3CC[C@H]4CCC(=O)N4C3)n3ccnc(N)c23)cc1 (stereo partly drawn) [Example 19, (6R,8aS)-6-(8-amino-1-{4-(1-(4-fluorophenyl)-1-hydroxyethyl]phenyl}imidazo[1,5-a]pyrazin-3-yl)hexahydroindolizin-3(2H)-one]	170 nM		2360 nM
CC(O)(c1ccccc1)c1ccc(-c2nc([C@@H]3CC[C@H]4CCC(=O)N4C3)n3ccnc(N)c23)cc1 (stereo partly drawn) [Example 23, (6R,8aS)-6-{8-amino-1-[4-(1-hydroxy-1-phenylethyl)phenyl]imidazol[1,5-a]pyrazin-3-yl}hexahydroindolizin-3(2H)-one]	3.5 nM		
Nc1nccn2c([C@@H]3CC[C@H]4CCC(=O)N4C3)nc(-c3ccc(C(O)(c4ccc(C(F)(F)F)cc4)C(F)(F)F)cc3)c12 (stereo partly drawn) [Example 28, (6R,8aS)-6-[8-amino-1-(4-{2,2,2-trifluoro-1-hydroxy-1-[4-(trifluoromethyl)phenyl]ethyl}phenyl)imidazo [1,5-a]pyrazin-3-yl]hexahydroindolizin-3(2H)-one]	792 nM		
Nc1nccn2c([C@@H]3CC[C@H]4CCC(=O)N4C3)nc(-c3ccc(C(O)(c4ccc(F)cc4)C(F)(F)F)cc3)c12 (stereo partly drawn) [Example 32, (6R,8aS)-6-(8-amino-1-{4-[2,2,2-trifluoro-1-(4-fluorophenyl)-1-hydroxyethyl]phenyl}imidazo[1,5-a]pyrazin-3-yl)hexahydroindolizin-3(2H)-one]	161 nM		
